# Assay: Inhibition of I309-induced chemotaxis in L1.2 cells expressing CCR8
row,Structure (SMILES),IC50 [nM]
1,CC(C)(C(=O)O)N1CCC(C(=O)NC2CCN(Cc3cccc(Oc4ccccc4Cl)c3)CC2)(c2ccccc2)CC1 [2-(4-{1-[3-(2-chloro-phenoxy)-benzyl]-piperidin-4-ylcarbamoyl}-4-phenyl-piperidin-1-yl)-2-methyl-propionic acid],4
2,COc1ccccc1Oc1cccc(CN2CCC(NC(=O)Cc3ccccc3)CC2)c1 [N-{1-[3-(2-methoxy-phenoxy)-benzyl]-piperidin-4-yl}-2-phenyl-acetamide],55
3,CC(C)(C(=O)O)N1CCC(C(=O)NC2CCN(Cc3cccc(Oc4ccccc4Cl)c3)CC2)(c2ccccc2)C1 (configuration not stated) [2-(3-((1-(3-(2-chlorophenoxy)benzyl)piperidin-4-yl)carbamoyl)-3-phenylpyrrolidin-1-yl)-2-methylpropanoic acid],1
4,COc1ccccc1Oc1cccc(CN2CCC(NC(=O)C3(c4ccccc4)CCNCC3)CC2)c1 [4-phenyl-piperidine-4-carboxylic acid {1-[3-(2-methoxy-phenoxy)-benzyl]-piperidin-4-yl}-amide],11
5,CCN1CCC(C(=O)NC2CCN(Cc3cccc(Oc4ccccc4Cl)c3)CC2)(c2ccccc2)CC1 [1-ethyl-4-phenyl-piperidine-4-carboxylic acid {1-[3-(2-chloro-phenoxy)-benzyl]-piperidin-4-yl}-amide],43
6,CCN1CCC(C(=O)NC2CCN(Cc3cccc(Oc4ccccc4OC)c3)CC2)(c2ccccc2)CC1 [1-ethyl-4-phenyl-piperidine-4-carboxylic acid {1-[3-(2-methoxy-phenoxy)-benzyl]-piperidin-4-yl}-amide],56
7,O=C(NC1CCN(Cc2cccc(Oc3ccccc3Cl)c2)CC1)C1(c2ccccc2)CCNC1 (racemic) [(+/-) 3-phenyl-pyrrolidine-3-carboxylic acid {1-[3-(2-chloro-phenoxy)-benzyl]-piperidin-4-yl}-amide],22
